Values of other authors as cited in US20070190094A1, “PESTICIDAL COMPOSITIONS CONTAINING ISOPROPYL-CONTAINING COMPOUNDS AS PESTICIDALLY ACTIVE INGREDIENTS” (ECOSMART TECHNOLOGIES, INC., priority 2006, published 2007).

Columns and labels:
[1] = animal studies; treatments as low as
[2] = chronic toxicity studies; increased liver weights even at the lowest doses
[3] = test system: hepatic microsomal oxidase enzymes; conditions: in vivo
[4] = U.S. Environmental Protection Agency classification

Compound: CCCCOCCOCCOCc1cc2c(cc1CCC)OCO2 [PBO, piperonyl butoxide]
- treatment level at which hepatocellular carcinomas were shown [1]: 1.2%
- lowest dose at which increased liver weights were shown [2]: 30 mg/kg/day
- effect on hepatic microsomal oxidase enzymes [3]: inhibit hepatic microsomal oxidase enzymes
- EPA carcinogen class [4]: class C possible human carcinogen
